Reference: patent US6903104B2, “Indol-3-YL-2-oxoacetamide compounds and methods of use thereof” (National Health Research Institutes, priority 2001, dated 2005)

Assays:
[1] = tested on: colorectal DLD1 cancer cells; assay: In vitro cytotoxicity MTS assay, colorectal DLD1; assay type: cell-based, human; conditions: 72 hours
Protocol: (§1) A panel of human cancer cells, gastric NUGC3 and HR, nasopharyngeal HONE1, hepatocellular HEP G2 and HA-22T, colorectal DLD1, lung A549, prostate PC3, breast MCF7 and its adriamycin-resistant MCF7/ADR subline, uterus MES-SA and its adriamycin-resistant MES-SA/Dx5 subline, is purchased from Food Industry Research and Development Institute, Hsinchu, Taiwan R.O.C. or American Type Culture Collection, Manassas, Va. U.S.A., are used in in vitro cytotoxicity assays. The human cells are seeded at a cell density of 3000 or 4500 cells/100 μl/well in 96-well flat-bottom plates and incubated for 24 hours at 37° C. in a 5% CO2 incubator. The testing compounds are dissolved in dimethyl sulfoxide (DMSO) and further diluted into the culture medium for treatments of human cancer cells in vitro. The drug-containing media has a final DMSO concentration of ≦0.3%. The compounds of this invention are prepared in culture media for testing at a range of concentrations from 10, 1, 0.1, 0.01 to 0.001 μM. Each compound solution is (200 μl/well in duplicate) in the cell plates and is treated for 72 hours at 37° C., 5% CO2 in an incubator. Actinomycin D at 5 μM and 0.3% DMSO are used as the positive and vehicle controls, respectively. A colorimetric assay using 3-(4,5-dimethylthiazol-2-yl)-5-(3-carboxymethoxyphenyl)-2-(4-sulfophenyl)-2H-tetrazolium (MTS) and phenazine methosulfate (PMS) is used to determine the potency of the compounds. This assay measures cell viability based on the cellular activity in conversion of a tetrazolium salt into a colored soluble formazan product. The optical density (OD) values are measured at 490 nm with a 1420 multilabel counter VICTOR® from Wallac, Turku, Finland. All of the measured values are subtracted with that of the blank control wells without cells before further calculations. The efficacy data are expressed as a percentage normalized to the vehicle controls as calculated in the following formulae. Inhibitory potency (% of vehicle control)=[(OD490compound−OD490blank)/(OD490vehicle−OD490blank)]×100%. The concentration (IC50) of a test compound that inhibits 50% of the cellular activity is determined.

[2] = tested on: hepatocellular HA-22T cancer cells; assay: In vitro cytotoxicity MTS assay, hepatocellular HA-22T; assay type: cell-based, human; conditions: 72 hours
Protocol: as §1

[3] = tested on: hepatocellular HEP G2 cancer cells; assay: In vitro cytotoxicity MTS assay, hepatocellular HEP G2; assay type: cell-based, human; conditions: 72 hours
Protocol: as §1

[4] = tested on: gastric NUGC3 cancer cells; assay: In vitro cytotoxicity MTS assay, gastric NUGC3; assay type: cell-based, human; conditions: 72 hours
Protocol: as §1

lung A549 cancer cells = assay: In vitro cytotoxicity MTS assay, lung A549; assay type: cell-based, human; conditions: 72 hours
Protocol: as §1

[5] = tested on: adriamycin-resistant MCF7/ADR subline; assay: In vitro cytotoxicity MTS assay, adriamycin-resistant MCF7/ADR; assay type: cell-based, human; conditions: 72 hours
Protocol: as §1

[6] = tested on: adriamycin-resistant MES-SA/Dx5 subline; assay: In vitro cytotoxicity MTS assay, adriamycin-resistant MES-SA/Dx5; assay type: cell-based, human; conditions: 72 hours
Protocol: as §1

[7] = tested on: rat aorta endothelial cells; assay: Rat aorta tube formation assay (angiogenesis inhibition); assay type: cell-based, Spraque-Dawley rats; design: key: Noninhibitors are indicated by the symbol (−), meaning that the extent of endothelial cell growth is essentially at the same level as that of the control; The most potent inhibitors receive a score of (+++++), indicating essentially no measurable endothelial cell growth; conditions: 5 days
Protocol: The procedures are modified from previous reports (Burbridge and West 2001; Bauer et al. 2000; Nicosai and Ottinetti 1990a) and described as follows. Male Spraque-Dawley rats of 6-8 weeks old are purchased from the National Laboratory Animal Breeding and Research Center (Taipei, Taiwan). The animals are anesthetized with urethane (2 g/kg, intraperitoneal) and the thoracic aortas are quickly harvested in a laminar flow hood. The aortas are rinsed with ice-cold normal saline with 10 μg/ml gentamicin and the attached fibroadipose tissues are removed using micro-dissection scissors. The aortas are cross-sectioned into rings of 1 mm in thickness. A mixture of Matrigel®, purchased from BD Biosciences, solution and the EBM-II medium, purchased from BioWhittaker Inc., (1:1) with 2% FBS, 0.25 mg/ml, amphotericin B and 10 μg/ml gentamicin is prepared and added at 100 μl to each well of a 48-well plate. The mixture is allowed to gel at 37° C. Aorta rings are then placed onto the gelled matrix and embedded in an additional 150 μl per well of the mixture solution and allowed to gel at 37° C. The aorta rings are then covered with 125 μl of the EGM-II medium and incubated overnight in humidified incubator with 5% CO2/95% air at 37° C. After removal of the EGM-II from the established aorta cultures, the compound-containing media are applied at 300 μl per well to the cultures and then incubated in 5% CO2/95% air at 37° C. for 5 days. The cultures are then subject to the 3-[4,5-dimethylthiazol-2-yl]-2,5 diphenyl-2H-tetrazolium bromide (MTT) or 3-(4,5-dimethylthiazol-2-yl)-5-(3-carbomethoxyphenyl)-2H-tetrazolium (MTS) assay and OD490 nm values measured. The testing compounds are dissolved in dimethyl sulfoxide (DMSO) and prepared in EBM-II media with at a final concentration of DMSO less than 0.1%.
The capillary-like, tube structure of the outgrown rat aorta endothelial cells is easily visualized by MTT staining. The medium on top of the matrix is removed from the established aorta ring cultures. MTT solution of 5 mg/ml in saline is added to the cultures at 100 μl/well and the cultures are incubated in a CO2 incubator at 37° C. for 24 hr. The stained cultures are then examined under a microscope DMIRB from Leica and photos taken with a digital camera.
Inhibition activity is also assessed in the following manner. The reductive reaction of MTS initiated by the viable cellular mitochondrial activity is used as a basis for the measurement of cell viability (Cory et al. 1991; Gieni et al. 1995). To the rat aorta ring cultures 300 μl of a solution containing 100 μg MTS and 1 μg, phenazine methosulfate is added per well and incubated in 5% CO2/95% air at 37° C. for 24 hr. During the incubation, MTS is converted to formazan product. At the end of incubation, the solution overlaying the gel is well-mixed and 100 μl aliquots are transferred into a 96-well plate for measurement of OD490 nm with a spectrophotometer VICTOR™-II from Wallac Oy.
The compounds listed in Table 3 are screened for angiogenesis inhibition. The control compound, ASTA, is D-24851, N-[pyridin-4-yl]-[1-(4-chlorobenzyl)-indol-3-yl]-glyoxylic acid amide. Noninhibitors are indicated by the symbol (−), meaning that the extent of endothelial cell growth is essentially at the same level as that of the control.

## Cc1cc(Cn2cc(C(=O)C(=O)Nc3cc(C)ns3)c3ccccc32)on1 [Compound 56]
[1]
  IC50: 0.041 µM
[2]
  IC50: 0.123 µM
[3]
  IC50: 0.093 µM
[4]
  IC50: 0.012 µM
Lung A549 cancer cells
  IC50: 0.557 µM
[5]
  IC50: 5 µM
[6]
  IC50: 0.368 µM
[7]; final conc. 0.3 μg/ml
  Inhibition Score: +++++
[7]; final conc. 1 μg/ml
  Inhibition Score: −

## Cc1cc(NC(=O)C(=O)c2cn(Cc3ccc(C#N)cc3)c3ccccc23)sn1 [Compound 25]
[1]
  IC50: 0.543 µM
[2]
  IC50: 0.692 µM
[3]
  IC50: 1.79 µM
[4]
  IC50: 0.514 µM
Lung A549 cancer cells
  IC50: 0.545 µM
[5]
  IC50: 5.24 µM
[6]
  IC50: 0.398 µM
[7]; final conc. 0.3 μg/ml
  Inhibition Score: +++++
